Experimental data from patent publication US8637499B2, “Benzoxazepines as inhibitors of PI3K/mTOR and methods of their use and manufacture” (Exelixis, Inc., priority 2009, dated 2014).
Values joined by “and” are separate entries in the source; they are usually repeats but may differ in a detail not shown here. Identical values can stand only once.

How the values were obtained:
mTORC1 (mTOR/GbL/Raptor) = mTORC1 (mTOR/GbL/Raptor) (Homo sapiens, UniProt P42345); assay: mTOR/GbL/Raptor (mTORC1) ELISA Assay; format: biochemical; settings: 0.2 nM mTORC1, 10 μM ATP, 50 nM NHis-tagged 4E-BP1; phosphorylation of 4E-BP1; read-out: IC50
Experimental: mTOR/GbL/Raptor (mTORC1) ELISA Assay
The measurement of mTORC1 enzyme activity was performed in an ELISA assay format following the phosphorylation of 4E-BP1 protein. All experiments were performed in the 384-well format. Generally, 0.5 μL DMSO containing varying concentrations of the test compound was mixed with 15 μL enzyme solution. Kinase reactions were initiated with the addition of 15 μL of substrates-containing solution. The assay conditions were as follows; 0.2 nM mTORC1, 10 μM ATP and 50 nM NHis-tagged 4E-BP1 in 20 mM Hepes, pH 7.2, 1 mM DTT, 50 mM NaCl, 10 mM MnCl2, 0.02 mg/mL BSA, 0.01% CHAPS, 50 mM β-glycerophosphate. Following an incubation of 120 minutes at ambient temperature, 20 μL of the reaction volume was transferred to a Ni-Chelate-coated 384-well plate. The binding step of the 4E-BP1 protein proceeded for 60 minutes, followed by washing 4 times each with 50 μL of Tris-buffered saline solution (TBS). Anti-phospho-4E-BP1 rabbit-IgG (20 μL, 1:5000) in 5% BSA-TBST (0.2% Tween-20 in TBS) was added and further incubated for 60 minutes. Incubation with a secondary HRP-tagged anti-IgG was similarly performed after washing off the primary antibody (4 washes of 50 μL). Following the final wash step with TBST, 20 μL of SuperSignal ELISA Femto (Pierce Biotechnology) was added and the luminescence measured using an EnVision plate reader.

PI3Kα = PI3Kα (Homo sapiens, UniProt P42336); assay: PI3K Biochemical Assays (ATP consumption, luciferase-luciferin chemiluminescence); settings: PI3Kα 1.5 nM, ATP 1 μM, PIP2 10 μM; percent of ATP consumed
Chain of PI3Kα (P42336 whole entry): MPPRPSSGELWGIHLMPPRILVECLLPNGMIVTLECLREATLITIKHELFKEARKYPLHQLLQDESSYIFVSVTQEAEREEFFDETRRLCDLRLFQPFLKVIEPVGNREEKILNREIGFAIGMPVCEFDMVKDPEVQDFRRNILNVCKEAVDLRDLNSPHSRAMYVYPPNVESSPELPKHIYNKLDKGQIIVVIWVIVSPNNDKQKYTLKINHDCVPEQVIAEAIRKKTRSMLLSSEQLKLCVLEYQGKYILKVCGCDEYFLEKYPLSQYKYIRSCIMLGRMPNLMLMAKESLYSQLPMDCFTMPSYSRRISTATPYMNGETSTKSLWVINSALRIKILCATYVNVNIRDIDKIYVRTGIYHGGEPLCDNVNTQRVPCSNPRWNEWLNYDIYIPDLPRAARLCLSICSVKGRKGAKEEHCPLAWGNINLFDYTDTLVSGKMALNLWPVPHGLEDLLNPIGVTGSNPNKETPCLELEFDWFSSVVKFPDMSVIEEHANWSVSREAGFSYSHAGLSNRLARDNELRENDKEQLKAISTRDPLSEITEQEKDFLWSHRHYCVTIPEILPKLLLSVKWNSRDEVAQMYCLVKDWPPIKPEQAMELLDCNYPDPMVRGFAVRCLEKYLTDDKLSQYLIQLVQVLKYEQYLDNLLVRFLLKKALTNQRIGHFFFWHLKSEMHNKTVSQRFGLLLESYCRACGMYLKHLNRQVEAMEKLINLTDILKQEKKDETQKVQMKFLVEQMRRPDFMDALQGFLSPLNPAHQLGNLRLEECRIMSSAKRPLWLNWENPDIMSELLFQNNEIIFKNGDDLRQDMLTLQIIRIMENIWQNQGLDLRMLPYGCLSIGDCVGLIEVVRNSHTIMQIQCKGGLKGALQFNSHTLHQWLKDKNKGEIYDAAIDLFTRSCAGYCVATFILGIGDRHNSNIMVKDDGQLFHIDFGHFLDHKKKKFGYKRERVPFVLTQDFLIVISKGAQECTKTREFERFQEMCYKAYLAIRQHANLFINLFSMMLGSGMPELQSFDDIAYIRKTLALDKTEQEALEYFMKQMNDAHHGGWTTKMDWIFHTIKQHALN
Chain of PI3Kα (P27986 whole entry partner): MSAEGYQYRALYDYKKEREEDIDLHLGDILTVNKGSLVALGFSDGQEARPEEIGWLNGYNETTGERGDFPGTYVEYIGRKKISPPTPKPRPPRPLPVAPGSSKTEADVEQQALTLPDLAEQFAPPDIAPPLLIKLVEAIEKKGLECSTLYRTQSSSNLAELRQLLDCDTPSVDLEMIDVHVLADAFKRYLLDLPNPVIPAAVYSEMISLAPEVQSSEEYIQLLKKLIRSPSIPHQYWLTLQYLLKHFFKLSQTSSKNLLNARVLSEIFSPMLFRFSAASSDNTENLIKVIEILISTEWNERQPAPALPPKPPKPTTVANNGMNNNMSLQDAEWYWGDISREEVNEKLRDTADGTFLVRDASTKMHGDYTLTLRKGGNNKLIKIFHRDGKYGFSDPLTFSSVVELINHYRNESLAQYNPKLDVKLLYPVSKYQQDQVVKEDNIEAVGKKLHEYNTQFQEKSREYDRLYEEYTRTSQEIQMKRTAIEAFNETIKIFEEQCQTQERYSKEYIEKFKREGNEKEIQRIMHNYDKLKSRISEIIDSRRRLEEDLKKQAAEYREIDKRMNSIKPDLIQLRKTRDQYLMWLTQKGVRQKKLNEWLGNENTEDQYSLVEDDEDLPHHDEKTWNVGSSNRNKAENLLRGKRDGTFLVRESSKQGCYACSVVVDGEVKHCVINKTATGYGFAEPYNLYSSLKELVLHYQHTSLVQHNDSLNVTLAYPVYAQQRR
Experimental: PI3Kα activity is measured as the percent of ATP consumed following the kinase reaction using luciferase-luciferin-coupled chemiluminescence. Reactions were conducted in 384-well white, medium binding microtiter plates (Greiner). Kinase reactions were initiated by combining test compounds, ATP, substrate (PIP2), and kinase in a 20 μL volume in a buffer solution. The standard PI3Kalpha assay buffer is composed 50 mM Tris, pH 7.5, 1 mM EGTA, 10 mM MgCl2, 1 mM DTT and 0.03% CHAPS. The standard assay concentrations for enzyme, ATP, and substrate are 1.5 nM, 1 μM, and 10 μM, respectively. The reaction mixture was incubated at ambient temperature for approximately 2 h. Following the kinase reaction, a 10 μL aliquot of luciferase-luciferin mix (Promega Kinase-Glo) was added and the chemiluminescence signal measured using a Victor2 plate reader (Perkin Elmer). Total ATP consumption was limited to 40-60% and IC50 values of control compounds correlate well with literature references. Substituting PI3Kα with PI3KIβ, […], or […], the inhibitory activity of the compounds for the other isoforms of I3K were measured.

Cc1nc2ccc(-c3ccc4c(c3)CN(C(=O)N3CCC(Cc5ccccc5)CC3)CCO4)cc2[nH]1 [Compound 171, 7-(2-methyl-1H-benzimidazol-6-yl)-4-{[4-(phenylmethyl)piperidin-1-yl]carbonyl}-2,3,4,5-tetrahydro-1,4-benzoxazepine]
IC50 (mTORC1 (mTOR/GbL/Raptor)): 250 to 700 nM

CCCCN(Cc1ccccc1)C(=O)N1CCOc2ccc(-c3ccc4nc(C)[nH]c4c3)cc2C1 [Compound 173, N-butyl-7-(2-methyl-1H-benzimidazol-6-yl)-N-(phenylmethyl)-2,3-dihydro-1,4-benzoxazepine-4(5H)-carboxamide]
IC50 (mTORC1 (mTOR/GbL/Raptor)): 250 to 700 nM

CC1CCN(C(=O)N2CCOc3ccc(-c4cc(NCc5ccccc5)[nH]n4)cc3C2)CC1 [Compound 9, 3-{4-[(4-methylpiperidin-1-yl)carbonyl]-2,3,4,5-tetrahydro-1,4-benzoxazepin-7-yl}-N-(phenylmethyl)-1H-pyrazol-5-amine]
IC50 (PI3Kα): 1000 to 3000 nM

CC1CCN(C(=O)N2CCOc3ccc(-c4ccc(N)nn4)cc3C2)CC1 [Compound 1, 6-{4-[(4-methylpiperidin-1-yl)carbonyl]-2,3,4,5-tetrahydro-1,4-benzoxazepin-7-yl}pyridazin-3-amine]
IC50 (mTORC1 (mTOR/GbL/Raptor)): 700 to 2600 nM

Cc1nc2ccc(-c3ccc4c(c3)CN(C(=O)N3CCC(O)(c5ccc(C(F)(F)F)cc5)CC3)CCO4)cc2[nH]1 [Compound 141, 1-{[7-(2-methyl-1H-benzimidazol-6-yl)-2,3-dihydro-1,4-benzoxazepin-4(5H)-yl]carbonyl}-4-[4-(trifluoromethyl)phenyl]piperidin-4-ol]
IC50 (mTORC1 (mTOR/GbL/Raptor)): 250 to 700 nM

Cc1nc2ccc(-c3ccc4c(c3)CN(C(=O)N3CCC(C5CCNCC5)CC3)CCO4)cc2[nH]1 [Compound 71, 1-{[7-(2-methyl-1H-benzimidazol-6-yl)-2,3-dihydro-1,4-benzoxazepin-4(5H)-yl]carbonyl}-4,4-bipiperidine]
IC50 (PI3Kα): 200 to 500 nM and 500 to 1000 nM

Cc1nc2ccc(-c3ccc4c(c3)CN(C(=O)N3CCC(O)(C(F)(F)F)CC3c3ccc(F)c(F)c3)CCO4)cc2[nH]1 (stereo not shown) [Compound 119, 2-(3,4-difluorophenyl)-1-{[7-(2-methyl-1H-benzimidazol-6-yl)-2,3-dihydro-1,4-benzoxazepin-4(5H)-yl]carbonyl}-4-(trifluoromethyl)piperidin-4-ol]
IC50 (PI3Kα): 1000 to 3000 nM

Cc1nc2ccc(-c3ccc4c(c3)CN(C(=O)N3CCCCC3c3ccccc3C)CCO4)cc2[nH]1 (stereo not shown) [Compound 126, 7-(2-methyl-1H-benzimidazol-6-yl)-4-{[2-(2-methylphenyl)piperidin-1-yl]carbonyl}-2,3,4,5-tetrahydro-1,4-benzoxazepine]
IC50 (mTORC1 (mTOR/GbL/Raptor)): 700 to 2600 nM

Cc1nc2ccc(-c3ccc4c(c3)CN(C(=O)N3[C@@H]5CC[C@H]3C[C@@H](N)C5)CCO4)cc2[nH]1 [Compound 77, 8-{[7-(2-methyl-1H-benzimidazol-6-yl)-2,3-dihydro-1,4-benzoxazepin-4(5H)-yl]carbonyl}-8-azabicyclo[3.2.1]octan-3-(endo)-amine]
IC50 (mTORC1 (mTOR/GbL/Raptor)): 700 to 2600 nM

CC1CCN(C(=O)N2CCOc3ccc(-c4cnc(N)cn4)cc3C2)CC1 [Compound 4, 5-{4-[(4-methylpiperidin-1-yl)carbonyl]-2,3,4,5-tetrahydro-1,4-benzoxazepin-7-yl}pyrazin-2-amine]
IC50 (mTORC1 (mTOR/GbL/Raptor)): 700 to 2600 nM

Cc1nc2ccc(-c3ccc4c(c3)CN(C(=O)N3CCN(C)C(=O)C3)CCO4)cc2[nH]1 [Compound 146, 1-methyl-4-{[7-(2-methyl-1H-benzimidazol-6-yl)-2,3-dihydro-1,4-benzoxazepin-4(5H)-yl]carbonyl}piperazin-2-one]
IC50 (mTORC1 (mTOR/GbL/Raptor)): 250 to 700 nM

COc1cccc(N2CCN(C(=O)N3CCOc4ccc(-c5ccc6nc(C)[nH]c6c5)cc4C3)CC2)c1 [Compound 160, 7-(2-methyl-1H-benzimidazol-6-yl)-4-({4-[3-(methyloxy)phenyl]piperazin-1-yl}carbonyl)-2,3,4,5-tetrahydro-1,4-benzoxazepine]
IC50 (mTORC1 (mTOR/GbL/Raptor)): 700 to 2600 nM

CC(=O)c1ccc(N2CCN(C(=O)N3CCOc4ccc(-c5ccc6nc(C)[nH]c6c5)cc4C3)CC2)cc1 [Compound 169, 1-[4-(4-{[7-(2-methyl-1H-benzimidazol-6-yl)-2,3-dihydro-1,4-benzoxazepin-4(5H)-yl]carbonyl}piperazin-1-yl)phenyl]ethanone]
IC50 (PI3Kα): 500 to 1000 nM

Cc1nc2ccc(-c3ccc4c(c3)CN(C(=O)N3[C@@H]5CC[C@H]3C[C@@H](CO)C5)CCO4)cc2[nH]1 [Compound 112, (8-{[7-(2-methyl-1H-benzimidazol-6-yl)-2,3-dihydro-1,4-benzoxazepin-4(5H)-yl]carbonyl}-8-azabicyclo[3.2.1]oct-3-(endo)-yl)methanol]
IC50 (PI3Kα): 200 to 500 nM

Cc1nc2ccc(-c3ccc4c(c3)CN(C(=O)N3CCN(Cc5c(F)cccc5Cl)CC3)CCO4)cc2[nH]1 [Compound 152, 4-({4-[(2-chloro-6-fluorophenyl)methyl]piperazin-1-yl}carbonyl)-7-(2-methyl-1H-benzimidazol-6-yl)-2,3,4,5-tetrahydro-1,4-benzoxazepine]
IC50 (mTORC1 (mTOR/GbL/Raptor)): 250 to 700 nM

Cc1nc2cc(-c3ccc4c(c3)CN(C(=O)N3CC[C@@](C)(O)C[C@@H]3c3ccccc3)CCO4)ccc2[nH]1 (racemic) [Compound 133, (±)-(2R,4R)-4-methyl-1-{[7-(2-methyl-1H-benzimidazol-5-yl)-2,3-dihydro-1,4-benzoxazepin-4(5H)-yl]carbonyl}-2-phenylpiperidin-4-ol]
IC50 (mTORC1 (mTOR/GbL/Raptor)): 700 to 2600 nM

Nc1cnc(-c2ccc3c(c2)CN(C(=O)N2CCC(C(F)(F)F)CC2)CCO3)cn1 [Compound 6, 5-(4-{[4-(trifluoromethyl)piperidin-1-yl]carbonyl}-2,3,4,5-tetrahydro-1,4-benzoxazepin-7-yl)pyrazin-2-amine]
IC50 (mTORC1 (mTOR/GbL/Raptor)): 250 to 700 nM

Cc1nc2ccc(-c3ccc4c(c3)CN(C(=O)N3CCCCC3Cc3ccccc3)CCO4)cc2[nH]1 (stereo not shown) [Compound 104, 7-(2-methyl-1H-benzimidazol-6-yl)-4-{[2-(phenylmethyl)piperidin-1-yl]carbonyl}-2,3,4,5-tetrahydro-1,4-benzoxazepine]
IC50 (mTORC1 (mTOR/GbL/Raptor)): 250 to 700 nM

Cc1nc2ccc(-c3ccc4c(c3)CN(C(=O)N3CCN(c5ccccc5Cl)CC3)CCO4)cc2[nH]1 [Compound 159, 4-{[4-(2-chlorophenyl)piperazin-1-yl]carbonyl}-7-(2-methyl-1H-benzimidazol-6-yl)-2,3,4,5-tetrahydro-1,4-benzoxazepine]
IC50 (mTORC1 (mTOR/GbL/Raptor)): 700 to 2600 nM

CC1CCN(C(=O)N2CCOc3ccc(-c4cc(N)[nH]n4)cc3C2)CC1 [Compound 10, 3-{4-[(4-methylpiperidin-1-yl)carbonyl]-2,3,4,5-tetrahydro-1,4-benzoxazepin-7-yl}-1H-pyrazol-5-amine]
IC50 (mTORC1 (mTOR/GbL/Raptor)): 700 to 2600 nM

Cc1nc2ccc(-c3ccc4c(c3)CN(C(=O)N3CCN(c5ccccc5F)CC3)CCO4)cc2[nH]1 [Compound 165, 4-{[4-(2-fluorophenyl)piperazin-1-yl]carbonyl}-7-(2-methyl-1H-benzimidazol-6-yl)-2,3,4,5-tetrahydro-1,4-benzoxazepine]
IC50 (mTORC1 (mTOR/GbL/Raptor)): 700 to 2600 nM

Cc1nc2ccc(-c3ccc4c(c3)CN(C(=O)N3CCCC[C@H]3c3ccccc3)CCO4)cc2[nH]1 [Compound 65, 7-(2-methyl-1H-benzimidazol-6-yl)-4-{[(2S)-2-phenylpiperidin-1-yl]carbonyl}-2,3,4,5-tetrahydro-1,4-benzoxazepine]
IC50 (mTORC1 (mTOR/GbL/Raptor)): ≤ 50 nM

CCC1CC2(CCN(C(=O)N3CCOc4ccc(-c5ccc6nc(C)[nH]c6c5)cc4C3)CC2)CC(=O)N1 (stereo not shown) [Compound 155, 4-ethyl-9-{[7-(2-methyl-1H-benzimidazol-6-yl)-2,3-dihydro-1,4-benzoxazepin-4(5H)-yl]carbonyl}-3,9-diazaspiro[5.5]undecan-2-one]
IC50 (mTORC1 (mTOR/GbL/Raptor)): 250 to 700 nM

Cc1nc2ccc(-c3ccc4c(c3)CN(C(=O)NC3[C@H]5C[C@@H]6C[C@@H](C[C@H]3C6)C5)CCO4)cc2[nH]1 (stereo partly drawn) [Compound 149, 7-(2-methyl-1H-benzimidazol-6-yl)-N-[(1r,3r,5R,7R)-tricyclo[3.3.1.1~3,7~]dec-2-yl]-2,3-dihydro-1,4-benzoxazepine-4(5H)-carboxamide]
IC50 (mTORC1 (mTOR/GbL/Raptor)): 700 to 2600 nM

Cc1nc2ccc(-c3ccc4c(c3)CN(C(=O)N3CCCCC3c3ccc(F)cc3C)CCO4)cc2[nH]1 (stereo not shown) [Compound 117, 4-{[2-(4-fluoro-2-methylphenyl)piperidin-1-yl]carbonyl}-7-(2-methyl-1H-benzimidazol-6-yl)-2,3,4,5-tetrahydro-1,4-benzoxazepine]
IC50 (mTORC1 (mTOR/GbL/Raptor)): 700 to 2600 nM
